From patent publication US20120027720A1, “PEPTIDE CONJUGATES” (priority 2008, published 2012)
*1 amine or outer side, *2 acyl side, *3 side chain or, on linkers, in order; H or OH if unused. Where no end group is shown, it is not given here. [ ]: non-standard residue; d: D form. Cys(Bzl) = L-S-benzyl-cysteine, O=C([C@H](CSCc1ccccc1)N[*:1])[*:2]; Phe(3-Me) = Cc1cccc(C[C@H](N)C(=O)O)c1; dAllylGly = C=CC[C@@H](N)C(=O)O; AllylGly = C=CC[C@H](N)C(=O)O; Tle = CC(C)(C)[C@H](N)C(=O)O; hSer = N[C@@H](CCO)C(=O)O; Nle = CCCC[C@H](N)C(=O)O; Pra = C#CC[C@H](N)C(=O)O

Columns and labels:
[1] = test system: CaCo2 monolayers; assay: Trans Epithelial Electric Resistance (TEER) across cell monolayer; format: cell-based; parameters: key to Reduced TEER: + indicates an enhancement of the permeability of the tight junctions were observed; − indicates no enhancement of permeability was observed; settings: Caco-2 monolayer
Excerpt: (§1) Agonists of tight junctions can be identified by their ability to enhance the flux of compounds (e.g. ions, Lucifer Yellow) through a cell monolayer that comprises tight junctions; or by their ability to reduce TEER across a cell monolayer that comprises tight junctions. Treatment of CaCo2 monolayers with peptide FCIGRL (SEQ ID NO: 1) led to a 51-fold enhancement of Lucifer Yellow permeability through CaCo2 monolayers compared to vehicle alone. Treatment of CaCo2 monolayers with peptide FCIGRL led to a 16-fold decrease in TEER across CaCo2 monolayers compared to vehicle alone.
(§2) Determination of TEER and Lucifer Yellow Flux
(§3) Prepare Modified Hank's Balanced Salt Solution (MHBSS) by obtaining 1 L bottle of HBSS removing 10 ml of HBSS and replacing it with 10 ml HEPES buffer pH 7.0. Adjust pH to 7.4±0.1 using concentrated NaOH (10N).
(§4) Remove Caco-2 cells from incubator, grown on 12-well, […], polycarbonate Transwell® filters (Corning) and record passage#, date cells seeded and age in days.
(§5) Aspirate cell culture medium from both the apical (AP) and basolateral (BL) compartments, replacing with 0.5 ml and 1.5 ml of MHBSS, respectively. Incubate cells at 37° C. for 30 minutes.
Using the MilliCell®-ERS instrument (Millipore), measure and record the transepithelial electrical resistance (TEER) across each filter and record.
(§6) Aspirate solution from the apical compartment of each filter (n=3 per condition) and replace with 0.5 ml of control and test solutions containing Lucifer Yellow and test compound if appropriate.
(§7) Place all plates into incubator set at 37° C. (±0.2), 50 RPM (±5) for a total of 180 minutes.
At t=30, 60, 120 and 180 minutes, measure and record the transepithelial electrical resistance (TEER) across each filter using the MilliCell-ERS instrument.
(§8) Cells: Caco-2 cells passage 40-60 grown on Transwell® plates for 21-28 days
(§9) Culture Medium: DMEM supplemented with 10% fetal bovine serum, 1% NEAA, 1% Penn/Strep
(§10) Buffers: Hank's Balanced Salt Solution (HBSS) without calcium and magnesium
(§11) Flasks: 100×20 mm Tissue culture dish Falcon.
(§12) Plates: 12 well polycarbonate Transwell® filters; 0.3 uM pore size

[2] = test system: CaCo2 monolayers; assay: Epithelial flux of Lucifer Yellow through cell monolayer; format: cell-based; parameters: key to Enhanced LY permeability: + indicates an enhancement of the permeability of the tight junctions were observed; − indicates no enhancement of permeability was observed; settings: Lucifer Yellow flux, Caco-2 monolayer
Excerpt: as §1, §2, §3, §4, §5, §6, §7
At t=60, 120 and 180 minutes remove 100 μl from each basolateral compartment and place it in a 96-well plate for Lucifer Yellow analysis, replace with 100 μl of MHBSS.
Make a Lucifer Yellow standard curve with the following dilutions (7500 μM, 3750 μM, 750 μM, 375 μM, 75 μM, 37.5 μM, 7.5 μM, 3.75 μM, 0.75 μM) and pipette […] of each into a 96-well plate except for the first three standards mentioned above which require a 1:10 dilutions prior to transferring to the 96-well plate.
Harvest the remaining start solutions and what is left in each apical compartment into 1.5 ml vials. Freeze at −20° C. for future analysis.
Analyze each 96-well plate in a Tecan Spectra Fluor Plus using Magellan at 485 and 535 nm.
as §8, §9, §10, §11, §12

191 (E[AllylGly]IGRL-NH2; N-terminus assumed; SMILES C=CC[C@H](NC(=O)[C@@H](N)CCC(=O)O)C(=O)N[C@H](C(=O)NCC(=O)N[C@@H](CCCNC(=N)N)C(=O)N[C@@H](CC(C)C)C(N)=O)[C@@H](C)CC) [compound 191]
Reduced TEER [1]: −
Enhanced LY permeability [2]: −

165 (F[dL]IGRL-NH2; also: peptide conjugate) [compound 165]
Reduced TEER [1]: −
Enhanced LY permeability [2]: −

174 ([Phe(3-Me)]FIGRL; not fully specified; also: peptide conjugate) [compound 174]
Reduced TEER [1]: −
Enhanced LY permeability [2]: −

115 (FSIGRL; also: peptide conjugate) [compound 115]
Reduced TEER [1]: +
Enhanced LY permeability [2]: +

198 (A[AllylGly]IGRL-NH2; N-terminus assumed; SMILES C=CC[C@H](NC(=O)[C@H](C)N)C(=O)N[C@H](C(=O)NCC(=O)N[C@@H](CCCNC(=N)N)C(=O)N[C@@H](CC(C)C)C(N)=O)[C@@H](C)CC) [compound 198]
Reduced TEER [1]: −
Enhanced LY permeability [2]: −

9 (IGRL; not fully specified; printed as Ile-Gly-Arg-Leu) [compound 9]
Reduced TEER [1]: −
Enhanced LY permeability [2]: −

169 (Ac-F[hSer]IGR-NH2; also: peptide conjugate) [compound 169]
Reduced TEER [1]: −
Enhanced LY permeability [2]: −

197 (K[AllylGly]IGRL-NH2; N-terminus assumed; SMILES C=CC[C@H](NC(=O)[C@@H](N)CCCCN)C(=O)N[C@H](C(=O)NCC(=O)N[C@@H](CCCNC(=N)N)C(=O)N[C@@H](CC(C)C)C(N)=O)[C@@H](C)CC) [compound 197]
Reduced TEER [1]: −
Enhanced LY permeability [2]: −

76 (WCIGRL; not fully specified; printed as Trp-Cys-Ile-Gly-Arg-Leu) [compound 76]
Reduced TEER [1]: +
Enhanced LY permeability [2]: +

37 ([dL][dR]GICF; not fully specified; printed as D-Leu-D-Arg-Gly-Ile-Cys-Phe) [compound 37]
Reduced TEER [1]: −
Enhanced LY permeability [2]: −

193 (Y[AllylGly]IGRL-NH2; N-terminus assumed; SMILES C=CC[C@H](NC(=O)[C@@H](N)Cc1ccc(O)cc1)C(=O)N[C@H](C(=O)NCC(=O)N[C@@H](CCCNC(=N)N)C(=O)N[C@@H](CC(C)C)C(N)=O)[C@@H](C)CC) [compound 193]
Reduced TEER [1]: −
Enhanced LY permeability [2]: −

125 (FLIGRL-NH2; also: peptide conjugate) [compound 125]
Reduced TEER [1]: +
Enhanced LY permeability [2]: +

185 (F[dAllylGly]IGR-NH2; N-terminus assumed; SMILES C=CC[C@@H](NC(=O)[C@@H](N)Cc1ccccc1)C(=O)N[C@H](C(=O)NCC(=O)N[C@@H](CCCNC(=N)N)C(N)=O)[C@@H](C)CC) [compound 185]
Reduced TEER [1]: −
Enhanced LY permeability [2]: −

34 (F[dC][dI]G[dR][dL]; not fully specified) [compound 34]
Reduced TEER [1]: −
Enhanced LY permeability [2]: −

206 (F[AllylGly]LGRL-NH2; N-terminus assumed; SMILES C=CC[C@H](NC(=O)[C@@H](N)Cc1ccccc1)C(=O)N[C@@H](CC(C)C)C(=O)NCC(=O)N[C@@H](CCCNC(=N)N)C(=O)N[C@@H](CC(C)C)C(N)=O) [compound 206]
Reduced TEER [1]: +
Enhanced LY permeability [2]: +

176 (F[Pra]IGR-NH2; N-terminus assumed; SMILES C#CC[C@H](NC(=O)[C@@H](N)Cc1ccccc1)C(=O)N[C@H](C(=O)NCC(=O)N[C@@H](CCCNC(=N)N)C(N)=O)[C@@H](C)CC) [compound 176]
Reduced TEER [1]: −
Enhanced LY permeability [2]: −

27 (LRGI[dC]F; not fully specified; printed as Leu-Arg-Gly-Ile-D-Cys-Phe) [compound 27]
Reduced TEER [1]: −
Enhanced LY permeability [2]: −

129 (FQIGRL; also: peptide conjugate) [compound 129]
Reduced TEER [1]: −
Enhanced LY permeability [2]: −

203 (F[AllylGly]PGRL-NH2; N-terminus assumed; SMILES C=CC[C@H](NC(=O)[C@@H](N)Cc1ccccc1)C(=O)N1CCC[C@H]1C(=O)NCC(=O)N[C@@H](CCCNC(=N)N)C(=O)N[C@@H](CC(C)C)C(N)=O) [compound 203]
Reduced TEER [1]: −
Enhanced LY permeability [2]: −

187 (Q[AllylGly]IGRL-NH2; N-terminus assumed; SMILES C=CC[C@H](NC(=O)[C@@H](N)CCC(N)=O)C(=O)N[C@H](C(=O)NCC(=O)N[C@@H](CCCNC(=N)N)C(=O)N[C@@H](CC(C)C)C(N)=O)[C@@H](C)CC) [compound 187]
Reduced TEER [1]: −
Enhanced LY permeability [2]: −

121 (FWIGRL; also: peptide conjugate) [compound 121]
Reduced TEER [1]: +
Enhanced LY permeability [2]: +

202 (I[AllylGly]IGRL-NH2; N-terminus assumed; SMILES C=CC[C@H](NC(=O)[C@@H](N)[C@@H](C)CC)C(=O)N[C@H](C(=O)NCC(=O)N[C@@H](CCCNC(=N)N)C(=O)N[C@@H](CC(C)C)C(N)=O)[C@@H](C)CC) [compound 202]
Reduced TEER [1]: −
Enhanced LY permeability [2]: −

168 (F[L‑4,5‑dehydro‑leucine]IGRL; not fully specified; also: peptide conjugate) [compound 168]
Reduced TEER [1]: −
Enhanced LY permeability [2]: +

80 (SLIGRL-NH2; not fully specified; printed as Ser-Leu-Ile-Gly-Arg-Leu-NH2) [compound 80]
Reduced TEER [1]: +
Enhanced LY permeability [2]: +

150 (Ac-F[hSer]IGRF; also: peptide conjugate) [compound 150]
Reduced TEER [1]: +
Enhanced LY permeability [2]: +

75 (Ac-ACIGRL; not fully specified; printed as Ac-Ala-Cys-Ile-Gly-Arg-Leu) [compound 75]
Reduced TEER [1]: +
Enhanced LY permeability [2]: +

133 (FYIGRL; also: peptide conjugate) [compound 133]
Reduced TEER [1]: −
Enhanced LY permeability [2]: −

123 (FPIGRL; also: peptide conjugate) [compound 123]
Reduced TEER [1]: −
Enhanced LY permeability [2]: −

204 (F[AllylGly]FGRL-NH2; N-terminus assumed; SMILES C=CC[C@H](NC(=O)[C@@H](N)Cc1ccccc1)C(=O)N[C@@H](Cc1ccccc1)C(=O)NCC(=O)N[C@@H](CCCNC(=N)N)C(=O)N[C@@H](CC(C)C)C(N)=O) [compound 204]
Reduced TEER [1]: =
Enhanced LY permeability [2]: +

152 (F[Cys(Bzl)]IGRL; also: peptide conjugate, Xaa: 'may be' L-S-benzyl-cysteine) [compound 152]
Reduced TEER [1]: −
Enhanced LY permeability [2]: −

128 (FGIGRL; also: peptide conjugate) [compound 128]
Reduced TEER [1]: −
Enhanced LY permeability [2]: +

147 (H-F[Nle]IGRL-OH; not fully specified; printed as H-Phe-Nle-Ile-Gly-Arg-Leu-OH; also: peptide conjugate, Xaa: 'may be' L-norleucine) [compound 147]
Reduced TEER [1]: −
Enhanced LY permeability [2]: −

157 (F[Tle]IGRL-OH; not fully specified; also: peptide conjugate, Xaa: 'may be' L-tert-butylglycine) [compound 157]
Reduced TEER [1]: +
Enhanced LY permeability [2]: +

201 (R[AllylGly]IGRL-NH2; N-terminus assumed; SMILES C=CC[C@H](NC(=O)[C@@H](N)CCCNC(=N)N)C(=O)N[C@H](C(=O)NCC(=O)N[C@@H](CCCNC(=N)N)C(=O)N[C@@H](CC(C)C)C(N)=O)[C@@H](C)CC) [compound 201]
Reduced TEER [1]: −
Enhanced LY permeability [2]: −

21 ([dL]RG[dI][dC][dF]; not fully specified) [compound 21]
Reduced TEER [1]: −
Enhanced LY permeability [2]: −
